# Results as given in EP0444659B1, “A pharmaceutical solution comprising derivatives of FK506” (FUJISAWA PHARMACEUTICAL CO., LTD., priority 1990, dated 1991).
# Columns and labels:
# physchem = type: physicochemical
# Text: From the above point of view, the inventors of the present invention studied, at first, the solubility of the compound (I) in water. As a test compound, the inventors selected the following compound as a free form which has an excellent immunosupressive activity and is called FK 506 hereafter. R^1, R^2, R^8, R^23 = hydrogen R^7, R^9 = hydroxy R^14, R^15, R^16, R^17, R^18, R^19, R^22 = methyl R^10 = allyl R^20 = R^20a,H (R^20a = methoxy) X, Y = oxygen R^21 = R^21a,H (R^21a = hydroxy) n = 2 R^3, R^4 = form a second bond between the vicinal carbon atoms to which they are attached R^5, R^6 = form a second bond between the vicinal carbon atoms to which they are attached
# The solubility of FK 506 in water is at most 3 µg/ml under ambient temperature. Accordingly, it is decided to add a surface active agent in order to increase the solubility of FK 506 in water to the level where the clinically effective amount of FK 506 is dissolved. […] As a surface active agent, a castor oil-surface active agent i.e., HCO-10, HCO-40, HCO-60 (trademark, prepared by Nikko Chemicals, respectively) are selected for examination.
# It is conjectured from the result shown in Table 1 that the concentration of the surface active agent should be controlled at 1.43w/v% [about 150mg of the surface active agent against 1mg of FK506] to dissolve 0.1mg of FK 506 in 1ml of water, calculating based on the result that 0.035mg of FK 506 is dissolved in 1ml of 0.5w/v% HCO-60 aqueous solution at 20 °C. Accordingly, if it is desired to prepare 5mg/ml aqueous solution FK 506, the concentration of the surface active agent is estimated to come up to 87w/v% from the calculation based on the result of HCO-60, 20w/v%, 20°C. Such […] high concentration of surface active agent in aqueous solution should not be realized in practice of clinical field.
# [1] = dilution of the solution with physiological saline: clarity, turbidity and crystal separation; type: physicochemical
# Protocol: Nonaqueous solvent is, at the time of administrating into the human vascular tract, usually diluted with aqueous solvent such as physiological saline, since nonaqueous solvent has hemolysis action.
# The experimental solution (1ml) of the following prescription 3 consisting of FK 506, surface active agent and nonaqueous solvent was diluted with physiological saline (100ml) to find that the clear appearance of prescription was kept unchanged.
# Then several prescriptions of clear solution were further prepared altering the concentration of FK 506, the kind and the concentration of surface active agent, and were tested how change the clearity of the solution and whether separate out the crystal or not under the several condition of different degree of dilution.
compound,measurement,setting,value
"C=CCC1C=C(C)CC(C)CC(OC)C2OC(O)(C(=O)C(=O)N3CCCCC3C(=O)OC(C(C)=CC3CCC(O)C(OC)C3)C(C)C(O)CC1=O)C(C)CC2OC (centres unmarked) [FK 506, 17-allyl-1,14-dihydroxy-12-[2-(4-hydroxy-3-methoxycyclohexyl)-1-methylvinyl]-23, 25-dimethoxy-13,19,21,27-tetramethyl-11, 28-dioxa-4-azatricyclo-[22.3.1.0^4.9] octacos-18-ene-2,3,10,16-tetraone]",amount of the surface active agent against 1mg of FK506,physchem,about 150 mg
same,concentration of the surface active agent to prepare 5mg/ml aqueous solution FK 506,physchem,87 w/v%
same,concentration of the surface active agent to dissolve 0.1mg of FK 506 in 1ml of water,physchem; calculated from 0.035mg/ml in 0.5w/v% HCO-60 at 20 °C,1.43 w/v%
same,solubility,"physchem; hco-40 5 w/v% aqueous, solubility of FK506",400 µg/mL
same,solubility,"physchem; hco-40 10 w/v% aqueous, solubility of FK506",780 µg/mL
same,solubility,"physchem; hco-40 20 w/v% aqueous, solubility of FK506",1520 µg/mL
same,solubility,"physchem; hco-60 0.1 w/v% aqueous, solubility of FK506",5 µg/mL
same,solubility,"physchem; hco-60 0.3 w/v% aqueous, solubility of FK506",19 µg/mL
same,solubility,"physchem; hco-60 0.5 w/v% aqueous, solubility of FK506",35 µg/mL
same,solubility of FK506,physchem; hco-60 5 w/v% aqueous,0.29 mg/mL
same,solubility,"physchem; hco-60 5 w/v% aqueous, solubility of FK506",280 µg/mL
same,solubility of FK506,physchem; hco-60 10 w/v% aqueous,0.57 mg/mL
same,solubility,"physchem; hco-60 10 w/v% aqueous, solubility of FK506",610 µg/mL
same,solubility of FK506,physchem; hco-60 20 w/v% aqueous,1.14 mg/mL
same,solubility,"physchem; hco-60 20 w/v% aqueous, solubility of FK506",1150 µg/mL
same,solubility of FK506,physchem; hco-60/hco-10 (4:1) 5 w/v%,0.27 mg/mL
same,solubility,"physchem; hco-60/hco-10 (4:1) 5 w/v%, solubility of FK506",260 µg/mL
same,solubility of FK506,physchem; hco-60/hco-10 (4:1) 10 w/v%,0.56 mg/mL
same,solubility,"physchem; hco-60/hco-10 (4:1) 10 w/v%, solubility of FK506",560 µg/mL
same,solubility of FK506,physchem; hco-60/hco-10 (4:1) 20 w/v%,1.14 mg/mL
same,solubility,"physchem; hco-60/hco-10 (4:1) 20 w/v%, solubility of FK506",1130 µg/mL
same,solubility,"physchem; water, solubility of FK 506 in water",≤ 3 µg/mL
same,Period till solution becomes turbid to crystallize FK506,"[1]; FK 506 5 mg/ml, dilution times with physiological saline 2, Cremophor®EL, ethanol/surface active agent 35/65",≧7 days
same,Period till solution becomes turbid to crystallize FK506,"[1]; FK 506 5 mg/ml, dilution times with physiological saline 2, Cremophor®EL, ethanol/surface active agent 80/20",≧7 days
same,Period till solution becomes turbid to crystallize FK506,"[1]; FK 506 5 mg/ml, dilution times with physiological saline 2, HCO-40, ethanol/surface active agent 40/60",≧7 days
same,Period till solution becomes turbid to crystallize FK506,"[1]; FK 506 5 mg/ml, dilution times with physiological saline 2, HCO-40, ethanol/surface active agent 80/20",≧7 days
same,Period till solution becomes turbid to crystallize FK506,"[1]; FK 506 5 mg/ml, dilution times with physiological saline 2, HCO-60, ethanol/surface active agent 35/65",≧7 days
same,Period till solution becomes turbid to crystallize FK506,"[1]; FK 506 5 mg/ml, dilution times with physiological saline 2, HCO-60, ethanol/surface active agent 60/40",≧7 days
same,Period till solution becomes turbid to crystallize FK506,"[1]; FK 506 5 mg/ml, dilution times with physiological saline 2, HCO-60, ethanol/surface active agent 80/20",≧7 days
same,Period till solution becomes turbid to crystallize FK506,"[1]; FK 506 5 mg/ml, dilution times with physiological saline 100, Cremophor®EL, ethanol/surface active agent 35/65",≧7 days
same,Period till solution becomes turbid to crystallize FK506,"[1]; FK 506 5 mg/ml, dilution times with physiological saline 100, Cremophor®EL, ethanol/surface active agent 80/20",≧7 days
same,Period till solution becomes turbid to crystallize FK506,"[1]; FK 506 5 mg/ml, dilution times with physiological saline 100, HCO-40, ethanol/surface active agent 40/60",≧7 days
same,Period till solution becomes turbid to crystallize FK506,"[1]; FK 506 5 mg/ml, dilution times with physiological saline 100, HCO-40, ethanol/surface active agent 80/20",≧7 days
same,Period till solution becomes turbid to crystallize FK506,"[1]; FK 506 5 mg/ml, dilution times with physiological saline 100, HCO-60, ethanol/surface active agent 35/65",≧7 days
same,Period till solution becomes turbid to crystallize FK506,"[1]; FK 506 5 mg/ml, dilution times with physiological saline 100, HCO-60, ethanol/surface active agent 60/40",≧7 days
same,Period till solution becomes turbid to crystallize FK506,"[1]; FK 506 5 mg/ml, dilution times with physiological saline 100, HCO-60, ethanol/surface active agent 80/20",≧7 days
same,Period till solution becomes turbid to crystallize FK506,"[1]; FK 506 10 mg/ml, dilution times with physiological saline 2, Cremophor®EL, ethanol/surface active agent 35/65",≧7 days
same,Period till solution becomes turbid to crystallize FK506,"[1]; FK 506 10 mg/ml, dilution times with physiological saline 2, Cremophor®EL, ethanol/surface active agent 80/20",≧7 days
